According to patent US8143411B2, “Substituted 6-phenylnicotinic acids and their use” (Bayer Animal Health GmbH, priority 2007, dated 2012):
pEC50: −log10 of the molar value. Counter-ions that a name gives are not always drawn.

These compounds were tested against T1, human PPARα receptor (Homo sapiens, UniProt Q07869) (assay: Cellular transactivation assay (GAL4-PPARα chimera, luciferase reporter)). Conditions: CHO cells stably expressing GAL4-PPARα chimera (human PPARα ligand binding domain) and luciferase reporter; 6 h stimulation.
T1 construct: expressed in transfected cells
T1 sequence (Q07869 167-468): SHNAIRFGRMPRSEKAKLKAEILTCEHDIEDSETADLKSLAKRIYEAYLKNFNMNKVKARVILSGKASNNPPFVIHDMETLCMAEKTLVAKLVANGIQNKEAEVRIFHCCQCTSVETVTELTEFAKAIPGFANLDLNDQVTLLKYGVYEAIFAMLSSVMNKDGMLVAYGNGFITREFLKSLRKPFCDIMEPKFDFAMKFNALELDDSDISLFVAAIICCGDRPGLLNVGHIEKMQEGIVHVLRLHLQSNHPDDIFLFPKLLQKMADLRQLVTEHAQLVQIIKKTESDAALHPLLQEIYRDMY
Type: cell-based
Text: A cellular assay is used to identify activators of the peroxisome proliferator-activated receptor alpha (PPAR-alpha).
Since mammalian cells contain different endogenous nuclear receptors which may complicate an unambiguous interpretation of the results, an established chimera system is used in which the ligand binding domain of the human PPARα receptor is fused to the DNA binding domain of the yeast transcription factor GAL4. The resulting GAL4-PPARα chimera is co-transfected and stably expressed in CHO cells having a reporter construct.
The GAL4-PPARα expression construct contains the ligand binding domain of PPARα (amino acids 167-468) which is PCR-amplified and cloned into the vector pcDNA3.1. This vector already contains the GAL4 DNA binding domain (amino acids 1-147) of the vector pFC2-dbd (Stratagene). The reporter construct, which contains five copies of the GAL4 binding site upstream of a thymidine kinase promoter, expresses firefly luciferase (Photinus pyralis) following activation and binding of GAL4-PPARα.
The day before the test, CHO (Chinese hamster ovary) cells which stably express the GAL4-PPARα chimera described above and the luciferase reporter gene construct are plated in medium (Optimem, GIBCO), 2% activated carbon-purified fetal calf serum (Hyclone), 1.35 mM sodium pyruvate (GIBCO), 0.2% sodium bicarbonate (GIBCO) with 1×10^3 cells in 96-well microtiter plates and kept in a cell incubator (96% atmospheric humidity, 5% v/v CO2, 37° C.). On the day of the test, the substances to be tested are taken up in the medium mentioned above but without added calf serum) and added to the cells. After a stimulation period of 6 h, the luciferase activity is measured using a video camera. The relative light units measured give, as a function of the substance concentration, a sigmoidal stimulation curve. The EC50 values are calculated using the computer programme GraphPad PRISM (Version 3.02).

| SMILES | pEC50 |
| --- | --- |
| CC(C)CCOc1nc(-c2cc(F)cc(F)c2)cc(C(F)(F)F)c1C(=O)O [Example 49, 6-(3,5-Difluorophenyl)-2-(3-methylbutoxy)-4-(trifluoromethyl)nicotinic acid] | 7.38 |
| CC(C)Cc1nc(-c2ccc(Cl)cc2)cc(C(F)(F)F)c1C(=O)O [Example 77, 6-(4-Chlorophenyl)-2-isobutyl-4-(trifluoromethyl)nicotinic acid sodium salt] | 7.89 |
| Cc1ccc(-c2cc(C(F)(F)F)c(C(=O)O)c(OC(C)C3CCCCC3)n2)cc1F (centres unmarked) [Example 42, 2-(1-Cyclohexylethoxy)-6-(3-fluoro-4-methylphenyl)-4-(trifluoromethyl)nicotinic acid] | 6.92 |
| CC(C)(C)CCOc1nc(-c2ccc(Br)cc2)cc(C(F)(F)F)c1C(=O)O [Example 67, 6-(4-Bromophenyl)-2-(3,3-dimethylbutoxy)-4-(trifluoromethyl)nicotinic acid] | 6.74 |
| CCOc1cc(-c2ccc(Cl)cc2)nc(C(C)C)c1C(=O)O [Example 71, 6-(4-Chlorophenyl)-4-ethoxy-2-(1-methylethyl)nicotinic acid sodium salt] | 7.07 |
| O=C(O)c1c(C(F)(F)F)cc(-c2ccc(Cl)cc2)nc1NCC1CC1 [Example 22, 6-(4-Chlorophenyl)-2-[(cyclopropylmethyl)amino]-4-(trifluoromethyl)nicotinic acid] | 7.00 |
| CCc1nc(-c2ccc(Cl)cc2)cc(CC(C)C)c1C(=O)O [Example 51, 6-(4-Chlorophenyl)-2-ethyl-4-isobutyl-nicotinic acid] | 7.62 |

Results, then the compound that gave them:

| pEC50 | SMILES |
| --- | --- |
| 7.08 | Cc1ccc(-c2cc(C(F)(F)F)c(C(=O)O)c(NC(C)C)n2)cc1F [Example 7, 6-(3-Fluoro-4-methylphenyl)-2-(isopropylamino)-4-(trifluoromethyl)nicotinic acid] |
| 6.74 | COCCN(C)c1nc(-c2ccc(C)c(F)c2)cc(C(F)(F)F)c1C(=O)O [Example 47, 6-(3-Fluoro-4-methylphenyl)-2-[(2-methoxyethyl)(methyl)amino]-4-(trifluoromethyl)nicotinic acid hydrochloride] |
| 7.96 | Cc1ccc(-c2cc(C(F)(F)F)c(C(=O)O)c(CC(C)C)n2)cc1F [Example 2, 6-(3-Fluoro-4-methylphenyl)-2-isobutyl-4-(trifluoromethyl)nicotinic acid sodium salt] |
| 7.02 | CCOc1nc(-c2ccc(C)c(F)c2)cc(C(F)(F)F)c1C(=O)O [Example 34, 2-Ethoxy-6-(3-fluoro-4-methylphenyl)-4-(trifluoromethyl)nicotinic acid] |
